The values below come from patent US9221876B2, “Methods for treating kidney disease with fragments of ApoB-100” (Cedars-Sinai Medical Center, priority 2011, dated 2015).

Entries after “also recorded” stand apart in the source; their conditions may differ. No end group written: not given here.

Holding throughout (format): in vivo, apoE (−/−) male mice
Assay [1] is described as follows: Serum creatinine level (indicator of renal function), creatinine assay kit, AngII-induced renal damage. Here is the method:
(§1) The inventors assessed the effect of p210 immunization on AngII-induced renal inflammatory responses in apoE (−/−) male mice. For the experiments described herein, native p210 peptide (KTTKQ SFDLS VKAQY KKNKH) was conjugated to cationic bovine serum albumin (cBSA) as carrier. Alum was used as an adjuvant. At 7, 10, and 12 weeks of age, male apoE (−/−) mice were subcutaneously injected with 100 μg of p210/cBSA/Alum. As immunization controls, 100 μg of cBSA/Alum, or PBS were injected. At 10 weeks of age after first immunization booster, 1000 ng/Kg/min of AngII was delivered by subcutaneously implanted osmotic pump for 4 weeks (FIG. 1A).
Serum creatinine (Cr.) (an indicator of renal function) level at 14 weeks of age was assessed by commercially available creatinine assay kit following the manufacture's instruction. […] N: p210=12, cBSA=11, PBS=9.

The test system of assay [2] is TGF-β. The assay can be described thus: TGF-β mRNA expression in kidney. The conditions noted are these: p210/cBSA/Alum+AngII vs cBSA/Alum+AngII and PBS+AngII; N=9 each; p<0.05.
Source text: (§2) (Left): PAI-1. N=5 each, (Right): TGF-β. N=9 each. *p<0.05 vs. p210. p210: immunized with p210/cBSA/Alum+AngII; cBSA: immunized with cBSA/Alum+AngII; PBS: immunized with PBS+AngII.
as §1
(§3) At euthanasia, kidney was harvested for quantitative PCR analysis or histological analysis. Data are presented as mean±SEM. Data were analyzed by ANOVA following post-hoc test for multiple group comparison.
(§4) These anti-hypertensive and renal protective effects are associated with significant reduction of inflammatory cytokines and chemokine gene expression, ROS production mediated by NADPH oxidase, and profibrotic gene expression in kidney. […]

Assay [3] has as its system PAI-1. Briefly: PAI-1 mRNA expression in kidney. The conditions noted are these: p210/cBSA/Alum+AngII vs cBSA/Alum+AngII and PBS+AngII; N=5 each; p<0.05.
Source text: as §2, §1, §3, §4

Assay [4] has as its system TNF-α. Briefly: TNF-α mRNA expression in kidney, quantitative PCR. To be noted: p210/cBSA/Alum+AngII vs cBSA/Alum+AngII and PBS+AngII; N=10 each; p<0.05. The procedure: as §1, §3
In assay [5] the test system is glomerular ROS production. The assay can be described thus: Glomerular ROS (superoxide) production, in situ dihydroethidium (DHE) labeling of frozen kidney sections. The conditions noted are these: p210/cBSA/Alum+AngII vs cBSA/Alum+AngII and PBS+AngII; N=4 each; p<0.05.
Source text: (A) Representative figure of in situ DHE labeling. (B) Densitometric analysis of DHE fluorescence. *p<0.05 vs. p210. N=4 each. p210: immunized with p210/cBSA/Alum+AngII; cBSA: immunized with cBSA/Alum+AngII; PBS: immunized with PBS+AngII.
as §1
Superoxide production in kidney was measured by in situ dihydroethidium (DHE) methods with freshly cut frozen sections.

Assay [6] deals with IL-6. The assay can be described thus: IL-6 mRNA expression in kidney, quantitative PCR. The conditions noted are these: p210/cBSA/Alum+AngII vs cBSA/Alum+AngII and PBS+AngII; N=8 each; p<0.05. Here is the method: as §1, §3
Assay [7] deals with NOX1, a component of NADPH oxidase. The assay can be described thus: NOX1 expression in kidney. The conditions noted are these: p210/cBSA/Alum+AngII vs cBSA/Alum+AngII and PBS+AngII; N=8 each; p<0.05.
Source text: as §2, §1, §3, §4

Assay [8] concerns MCP-1. The assay can be described thus: MCP-1 mRNA expression in kidney, quantitative PCR. To be noted: p210/cBSA/Alum+AngII vs cBSA/Alum+AngII and PBS+AngII; N=8 each; p<0.05. The procedure: as §1, §3
The test system of assay [9] is Angiotensin II type 1 receptor (AT1R). The assay can be described thus: AT1R expression in aorta, Western blot with densitometric analysis, after p210 immunization and AngII infusion. The conditions noted are these: 100 μg p210/cBSA/Alum s.c. at 7, 10, 12 weeks of age; AngII 1000 ng/Kg/min by osmotic pump for 4 weeks; vs cBSA/Alum and PBS; N=6 each.
Source text: N=6 in each group. p210: immunized with p210/cBSA/Alum+AngII; cBSA: immunized with cBSA/Alum+AngII; PBS: immunized with PBS+AngII.
as §1
Background: A western blot detects proteins with antibodies after separation by electrophoresis.

As to “KTTKQ SFDLS VKAQY KKNKH (KTTKQSFDLSVKAQYKKNKH; also: conjugated to cationic BSA carrier) [Peptide P210, amino acids 3136-3155 of human ApoB-100; tested conjugated to cationic bovine serum albumin (cBSA) as carrier, Alum as adjuvant]”, the “Serum Cr.” value in assay [1] (at 14 weeks of age, 100 μg p210/cBSA/Alum s.c. at 7, 10, 12 weeks, AngII infusion 4 weeks, mean±SEM, N p210=12) worked out at 0.6 ± 0.1 mg/dL. Besides, the “Serum creatinine level vs cBSA and PBS groups” value in assay [1] (at 14 weeks of age, p<0.05) is reported as “significantly lower”. Moreover, the AngII-induced renal damage result in [1] (p210 immunization, AngII infusion 4 weeks) is recorded as “protected against AngII-induced renal damage; also recorded: significantly attenuated”. Also, the “TGF-β mRNA expression in kidney” value in [2] was “significantly downregulated; also recorded: significantly reduced”. Further, the “PAI-1 mRNA expression in kidney” value in assay [3] is recorded as “significantly downregulated; also recorded: significantly reduced”. Further, the “TNF-α mRNA expression in kidney” value in [4] was “down-regulated; also recorded: significantly reduced”. The “glomerular ROS production (DHE fluorescence)” value in assay [5] is reported as “significantly reduced”. In addition, in assay [6], the “IL-6 mRNA expression in kidney” value was “down-regulated; also recorded: significantly reduced”. Also, in assay [7], the “NOX1 expression in kidney” value was “significantly reduced”. Also, in assay [8], the “MCP-1 mRNA expression in kidney” value is listed as “down-regulated; also recorded: significantly reduced”. Further, the “expression of Angiotensin II type 1 receptor (AT1R) in aorta” value in [9] was “significantly decreased”.
